Each block holds one molecule with its values, some of them ahead of it.
Key:
Test in all cases: pIC50, kinobeads binding competition
[1] = biological target: T1, UniProt O94768
T1 sequence (whole entry): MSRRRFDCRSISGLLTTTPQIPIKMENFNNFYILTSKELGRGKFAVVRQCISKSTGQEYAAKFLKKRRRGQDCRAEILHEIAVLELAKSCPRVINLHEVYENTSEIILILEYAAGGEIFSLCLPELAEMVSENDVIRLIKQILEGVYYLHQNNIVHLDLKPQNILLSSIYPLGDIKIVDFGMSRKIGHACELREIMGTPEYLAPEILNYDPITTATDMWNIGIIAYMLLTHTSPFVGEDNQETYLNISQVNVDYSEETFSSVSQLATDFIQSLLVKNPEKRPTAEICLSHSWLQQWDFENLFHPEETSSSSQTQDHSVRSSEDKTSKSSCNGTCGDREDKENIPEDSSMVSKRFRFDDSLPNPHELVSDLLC
Procedure, shortened: (§1)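 To obtain pIC50, fold changes versus vehicle were fitted to logistic dose-response curves (R drc package) across biological duplicates. Protein binding to Kinobeads was quantified by TMT10 LC-MS/MS of digested bead-bound proteins. Treatments used nine concentrations with a top of 30 μM, applied to live Jurkat cells in 1:4 steps for 60 min at 37 °C before lysis, or to Jurkat lysate or a 1:1:1:1 HEK293/K-562/HepG2/placenta lysate mix in 1:5 steps for 60 min at 4 °C.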

[2] = biological target: T2, UniProt Q8IW41
T2 sequence (whole entry): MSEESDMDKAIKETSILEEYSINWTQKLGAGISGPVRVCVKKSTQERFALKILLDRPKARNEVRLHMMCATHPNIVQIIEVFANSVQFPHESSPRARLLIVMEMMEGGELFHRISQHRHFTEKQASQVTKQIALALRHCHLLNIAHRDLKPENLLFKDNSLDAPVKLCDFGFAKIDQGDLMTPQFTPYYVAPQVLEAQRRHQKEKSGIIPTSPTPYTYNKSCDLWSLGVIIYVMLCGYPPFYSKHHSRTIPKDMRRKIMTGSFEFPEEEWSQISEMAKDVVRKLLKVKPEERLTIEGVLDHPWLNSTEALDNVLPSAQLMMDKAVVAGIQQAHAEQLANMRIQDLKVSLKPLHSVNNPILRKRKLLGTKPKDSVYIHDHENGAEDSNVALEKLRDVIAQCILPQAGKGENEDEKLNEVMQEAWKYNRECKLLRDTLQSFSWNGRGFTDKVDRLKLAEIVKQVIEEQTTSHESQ
Procedure, shortened: as §1

[3] = biological target: T3, NEK3 (UniProt P51956)
T3 sequence (whole entry): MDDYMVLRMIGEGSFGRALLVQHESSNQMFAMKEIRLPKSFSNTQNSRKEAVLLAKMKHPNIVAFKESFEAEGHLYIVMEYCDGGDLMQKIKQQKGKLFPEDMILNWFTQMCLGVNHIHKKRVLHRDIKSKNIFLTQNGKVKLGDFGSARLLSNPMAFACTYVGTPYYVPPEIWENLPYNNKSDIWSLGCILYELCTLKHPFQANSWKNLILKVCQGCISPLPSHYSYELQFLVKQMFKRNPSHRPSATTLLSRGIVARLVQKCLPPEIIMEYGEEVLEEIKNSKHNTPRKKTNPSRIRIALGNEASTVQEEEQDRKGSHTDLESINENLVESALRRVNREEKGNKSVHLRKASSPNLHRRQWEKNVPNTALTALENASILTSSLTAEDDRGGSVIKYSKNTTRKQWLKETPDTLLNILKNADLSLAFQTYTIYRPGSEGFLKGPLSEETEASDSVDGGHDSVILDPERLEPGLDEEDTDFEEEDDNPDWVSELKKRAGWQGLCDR
Procedure, shortened: as §1

[4] = biological target: CDK6 (UniProt Q00534)
Procedure, shortened: as §1

[5] = biological target: MAP3K4 (UniProt Q9Y6R4)
MAP3K4, sequence (Q9Y6R4 whole entry): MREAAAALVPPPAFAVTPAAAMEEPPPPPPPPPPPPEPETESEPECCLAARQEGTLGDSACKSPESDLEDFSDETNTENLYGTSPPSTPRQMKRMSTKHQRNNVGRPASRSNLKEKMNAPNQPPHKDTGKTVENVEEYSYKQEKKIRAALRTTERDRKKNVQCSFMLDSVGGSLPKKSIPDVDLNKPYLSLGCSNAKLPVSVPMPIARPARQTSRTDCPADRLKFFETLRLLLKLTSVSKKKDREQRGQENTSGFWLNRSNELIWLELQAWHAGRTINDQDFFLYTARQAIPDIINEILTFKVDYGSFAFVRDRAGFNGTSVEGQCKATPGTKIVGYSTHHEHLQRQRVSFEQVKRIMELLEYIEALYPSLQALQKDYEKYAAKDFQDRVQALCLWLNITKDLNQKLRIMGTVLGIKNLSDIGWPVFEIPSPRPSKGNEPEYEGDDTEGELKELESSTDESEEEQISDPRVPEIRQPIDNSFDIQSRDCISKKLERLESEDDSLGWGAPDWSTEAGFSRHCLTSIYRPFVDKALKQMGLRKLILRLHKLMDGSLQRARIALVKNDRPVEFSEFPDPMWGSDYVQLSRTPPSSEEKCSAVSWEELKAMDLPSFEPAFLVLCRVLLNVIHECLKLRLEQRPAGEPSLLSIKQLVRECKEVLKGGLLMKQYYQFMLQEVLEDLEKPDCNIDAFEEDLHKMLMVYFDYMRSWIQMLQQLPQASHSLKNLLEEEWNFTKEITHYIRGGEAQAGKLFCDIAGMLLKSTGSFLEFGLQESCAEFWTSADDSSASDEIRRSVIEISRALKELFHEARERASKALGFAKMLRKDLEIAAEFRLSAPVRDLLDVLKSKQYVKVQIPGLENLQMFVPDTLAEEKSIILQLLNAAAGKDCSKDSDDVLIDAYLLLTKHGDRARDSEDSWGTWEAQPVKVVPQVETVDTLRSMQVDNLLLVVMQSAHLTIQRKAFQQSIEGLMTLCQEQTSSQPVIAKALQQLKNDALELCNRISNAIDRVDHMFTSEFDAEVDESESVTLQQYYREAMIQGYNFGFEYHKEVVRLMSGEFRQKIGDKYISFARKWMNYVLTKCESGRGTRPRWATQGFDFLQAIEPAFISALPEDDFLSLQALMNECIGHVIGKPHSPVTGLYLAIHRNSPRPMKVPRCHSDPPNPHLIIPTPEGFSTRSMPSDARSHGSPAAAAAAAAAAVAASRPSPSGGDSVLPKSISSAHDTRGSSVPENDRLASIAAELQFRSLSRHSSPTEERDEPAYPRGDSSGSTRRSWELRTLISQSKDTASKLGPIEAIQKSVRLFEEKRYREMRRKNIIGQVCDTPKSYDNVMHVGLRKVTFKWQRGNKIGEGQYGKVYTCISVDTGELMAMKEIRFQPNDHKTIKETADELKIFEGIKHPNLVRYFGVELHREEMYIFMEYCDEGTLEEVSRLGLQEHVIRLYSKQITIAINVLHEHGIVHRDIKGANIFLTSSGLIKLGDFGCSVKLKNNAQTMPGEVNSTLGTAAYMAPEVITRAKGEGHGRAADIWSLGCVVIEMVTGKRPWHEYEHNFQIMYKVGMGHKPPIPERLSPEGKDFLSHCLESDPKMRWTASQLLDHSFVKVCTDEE
Procedure, shortened: as §1

[6] = biological target: UniProt Q96GD4
Procedure, shortened: as §1

[7] = biological target: PRKCQ (UniProt Q04759)
PRKCQ, sequence (Q04759 whole entry, looked up): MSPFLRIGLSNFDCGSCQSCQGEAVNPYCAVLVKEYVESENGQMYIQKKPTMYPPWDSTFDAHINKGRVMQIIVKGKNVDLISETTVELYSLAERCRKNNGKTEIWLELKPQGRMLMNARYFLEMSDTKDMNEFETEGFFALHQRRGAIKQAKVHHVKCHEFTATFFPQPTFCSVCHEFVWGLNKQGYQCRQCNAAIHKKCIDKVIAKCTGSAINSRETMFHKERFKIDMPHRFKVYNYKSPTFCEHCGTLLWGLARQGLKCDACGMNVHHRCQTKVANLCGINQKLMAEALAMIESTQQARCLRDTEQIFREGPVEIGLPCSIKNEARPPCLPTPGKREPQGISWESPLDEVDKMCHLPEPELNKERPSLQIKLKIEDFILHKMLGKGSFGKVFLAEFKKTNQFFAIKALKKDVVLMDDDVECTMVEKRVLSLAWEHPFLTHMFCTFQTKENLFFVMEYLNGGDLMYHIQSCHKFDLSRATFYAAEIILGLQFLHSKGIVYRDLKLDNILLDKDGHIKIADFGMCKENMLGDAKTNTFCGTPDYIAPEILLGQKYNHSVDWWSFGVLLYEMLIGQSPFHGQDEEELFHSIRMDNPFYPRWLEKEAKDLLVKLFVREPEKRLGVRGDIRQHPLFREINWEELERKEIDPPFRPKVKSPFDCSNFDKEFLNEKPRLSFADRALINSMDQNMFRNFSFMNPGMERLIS
Procedure, shortened: as §1

[8] = biological target: UniProt Q5TCX8
Procedure, shortened: as §1

[9] = biological target: ROCK1 (UniProt Q13464)
ROCK1, sequence (Q13464 whole entry, looked up): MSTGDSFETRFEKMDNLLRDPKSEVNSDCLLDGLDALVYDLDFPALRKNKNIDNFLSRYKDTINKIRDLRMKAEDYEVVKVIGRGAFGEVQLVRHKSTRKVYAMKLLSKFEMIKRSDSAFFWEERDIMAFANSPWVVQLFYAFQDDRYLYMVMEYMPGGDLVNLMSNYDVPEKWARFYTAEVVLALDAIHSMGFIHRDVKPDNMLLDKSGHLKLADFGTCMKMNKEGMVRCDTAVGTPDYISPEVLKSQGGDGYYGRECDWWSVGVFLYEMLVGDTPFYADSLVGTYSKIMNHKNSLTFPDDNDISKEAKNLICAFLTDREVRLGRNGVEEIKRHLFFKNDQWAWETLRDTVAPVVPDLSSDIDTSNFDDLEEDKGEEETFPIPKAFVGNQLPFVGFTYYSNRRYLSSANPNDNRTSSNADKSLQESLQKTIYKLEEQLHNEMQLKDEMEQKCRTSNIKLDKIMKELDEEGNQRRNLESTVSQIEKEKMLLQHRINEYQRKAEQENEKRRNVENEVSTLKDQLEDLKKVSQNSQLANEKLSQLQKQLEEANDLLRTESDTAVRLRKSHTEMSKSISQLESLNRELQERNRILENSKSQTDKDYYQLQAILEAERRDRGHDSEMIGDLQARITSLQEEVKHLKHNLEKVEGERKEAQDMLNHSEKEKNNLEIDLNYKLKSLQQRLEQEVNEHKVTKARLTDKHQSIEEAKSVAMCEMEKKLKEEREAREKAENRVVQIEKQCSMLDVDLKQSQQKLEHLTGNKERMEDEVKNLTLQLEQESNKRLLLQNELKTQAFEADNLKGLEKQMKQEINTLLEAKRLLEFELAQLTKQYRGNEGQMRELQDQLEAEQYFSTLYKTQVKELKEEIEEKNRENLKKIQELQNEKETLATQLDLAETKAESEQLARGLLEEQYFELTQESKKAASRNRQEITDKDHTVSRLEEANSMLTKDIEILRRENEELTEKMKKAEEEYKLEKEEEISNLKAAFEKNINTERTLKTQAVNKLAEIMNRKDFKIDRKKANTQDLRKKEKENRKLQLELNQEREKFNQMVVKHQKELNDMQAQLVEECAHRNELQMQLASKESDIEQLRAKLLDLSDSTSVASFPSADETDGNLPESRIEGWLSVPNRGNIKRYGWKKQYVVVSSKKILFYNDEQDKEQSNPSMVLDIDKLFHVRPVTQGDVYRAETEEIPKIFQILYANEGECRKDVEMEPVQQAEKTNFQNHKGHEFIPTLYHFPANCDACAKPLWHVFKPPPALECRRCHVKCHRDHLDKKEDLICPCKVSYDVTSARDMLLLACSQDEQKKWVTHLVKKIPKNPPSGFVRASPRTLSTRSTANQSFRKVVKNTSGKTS
Procedure, shortened: as §1

[10] = biological target: CAMK2B (UniProt Q13554); settings: cell material: Lysate mix
Procedure, shortened: as §1

[11] = biological target: UniProt Q9NSY1
Procedure, shortened: as §1

[12] = biological target: T4, DYRK2 (UniProt Q92630)
T4 sequence (whole entry): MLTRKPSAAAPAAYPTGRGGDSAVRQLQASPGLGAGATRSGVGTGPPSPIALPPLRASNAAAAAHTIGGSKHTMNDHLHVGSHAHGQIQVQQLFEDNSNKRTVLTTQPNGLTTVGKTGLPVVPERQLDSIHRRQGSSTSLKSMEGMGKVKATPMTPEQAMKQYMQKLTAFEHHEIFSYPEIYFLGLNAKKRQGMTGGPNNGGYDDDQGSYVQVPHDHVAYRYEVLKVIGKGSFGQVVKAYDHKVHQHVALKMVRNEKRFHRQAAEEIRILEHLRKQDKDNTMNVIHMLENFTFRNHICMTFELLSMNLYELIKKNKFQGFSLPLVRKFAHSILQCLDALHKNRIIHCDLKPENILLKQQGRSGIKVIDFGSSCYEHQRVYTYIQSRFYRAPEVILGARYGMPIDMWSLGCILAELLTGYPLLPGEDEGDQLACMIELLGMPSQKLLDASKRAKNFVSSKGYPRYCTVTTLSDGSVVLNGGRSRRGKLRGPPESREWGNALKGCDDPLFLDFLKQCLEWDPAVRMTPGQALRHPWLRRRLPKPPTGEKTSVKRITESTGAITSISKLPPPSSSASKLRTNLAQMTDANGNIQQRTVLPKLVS
Procedure, shortened: as §1

[13] = biological target: UniProt P28482
UniProt P28482, sequence (P28482 whole entry): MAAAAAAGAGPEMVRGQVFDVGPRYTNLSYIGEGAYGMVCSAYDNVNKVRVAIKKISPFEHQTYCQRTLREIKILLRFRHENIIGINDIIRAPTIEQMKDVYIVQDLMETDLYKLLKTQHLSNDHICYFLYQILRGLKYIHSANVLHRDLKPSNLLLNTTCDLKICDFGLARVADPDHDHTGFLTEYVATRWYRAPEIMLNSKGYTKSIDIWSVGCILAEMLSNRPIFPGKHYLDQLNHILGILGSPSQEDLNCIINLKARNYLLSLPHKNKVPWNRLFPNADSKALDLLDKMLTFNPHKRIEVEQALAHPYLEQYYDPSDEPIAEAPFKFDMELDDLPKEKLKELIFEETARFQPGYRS
Procedure, shortened: as §1

[14] = biological target: CDK8 (UniProt P49336)
CDK8, sequence (P49336 whole entry): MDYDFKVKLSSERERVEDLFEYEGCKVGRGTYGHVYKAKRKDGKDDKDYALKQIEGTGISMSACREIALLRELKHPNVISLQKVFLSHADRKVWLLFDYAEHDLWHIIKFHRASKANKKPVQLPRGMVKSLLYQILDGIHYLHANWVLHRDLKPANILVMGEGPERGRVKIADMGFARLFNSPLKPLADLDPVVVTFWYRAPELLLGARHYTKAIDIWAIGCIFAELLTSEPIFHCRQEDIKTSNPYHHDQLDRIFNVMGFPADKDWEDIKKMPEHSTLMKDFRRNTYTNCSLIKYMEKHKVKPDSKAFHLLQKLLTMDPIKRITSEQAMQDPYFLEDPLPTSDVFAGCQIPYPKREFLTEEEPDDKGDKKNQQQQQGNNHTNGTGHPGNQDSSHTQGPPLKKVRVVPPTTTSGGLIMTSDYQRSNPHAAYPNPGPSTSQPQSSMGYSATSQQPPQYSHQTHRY
Procedure, shortened: as §1

[15] = biological target: CDK9 (UniProt P50750)
CDK9, sequence (P50750 whole entry): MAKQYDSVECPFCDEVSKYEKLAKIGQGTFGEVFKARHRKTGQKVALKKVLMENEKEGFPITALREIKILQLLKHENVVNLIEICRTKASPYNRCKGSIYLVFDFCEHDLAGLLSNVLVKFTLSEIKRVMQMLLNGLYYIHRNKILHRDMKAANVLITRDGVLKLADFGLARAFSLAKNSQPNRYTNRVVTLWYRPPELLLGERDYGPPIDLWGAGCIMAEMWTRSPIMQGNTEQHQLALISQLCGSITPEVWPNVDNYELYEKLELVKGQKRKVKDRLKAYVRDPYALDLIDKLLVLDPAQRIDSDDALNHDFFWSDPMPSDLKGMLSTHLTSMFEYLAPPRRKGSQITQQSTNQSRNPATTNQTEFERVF
Procedure, shortened: as §1

[16] = biological target: CLK1 (UniProt P49759)
Procedure, shortened: as §1

- pIC50 ([1]; cell material: Lysate mix): < 4.52
- pIC50 ([2]; cell material: Lysate mix): < 4.52
- pIC50 ([3]; cell material: Lysate mix): < 4.52
- pIC50 ([4]; cell material: Lysate mix): 5.06
- pIC50 ([5]; cell material: Lysate mix): 4.88
- pIC50 ([6]; cell material: Lysate mix): 5.94
- pIC50 ([7]; cell material: Lysate mix): < 4.52
- pIC50 ([8]; cell material: Lysate mix): < 4.52
- pIC50 ([9]; cell material: Lysate mix): < 4.52
- pIC50 [10]: < 4.52
- pIC50 ([11]; cell material: Lysate mix): < 4.52
- pIC50 ([12]; cell material: Lysate mix): < 4.52
- pIC50 ([13]; cell material: Lysate mix): < 4.52
- pIC50 ([14]; cell material: Lysate mix): < 4.52
- pIC50 ([15]; cell material: Lysate mix): 4.84
- pIC50 ([16]; cell material: Lysate mix): < 4.52
Compound: C#CCNC(=O)c1cc(Nc2cc(C)[nH]n2)nc(N2CCN(Cc3ccc(S(=O)(=O)F)cc3)CC2)n1

Compound: C#CCNC(=O)c1cc(Nc2cc(C3CC3)[nH]n2)nc(N2CCN(Cc3ccc(S(=O)(=O)F)cc3)CC2)n1
- pIC50 ([1]; cell material: Jurkat lysate): < 4.52
- pIC50 ([1]; cell material: Lysate mix): < 4.52
- pIC50 ([2]; cell material: Jurkat lysate): < 4.52
- pIC50 ([2]; cell material: Lysate mix): < 4.52
- pIC50 ([3]; cell material: Jurkat lysate): 4.66
- pIC50 ([3]; cell material: Lysate mix): 5.7
- pIC50 ([4]; cell material: Jurkat cells): 6.84
- pIC50 ([4]; cell material: Jurkat lysate): 5.43
- pIC50 ([4]; cell material: Lysate mix): 5.58
- pIC50 ([5]; cell material: Jurkat cells): 6.09
- pIC50 ([5]; cell material: Jurkat lysate): 4.81
- pIC50 ([5]; cell material: Lysate mix): 5.74
- pIC50 ([6]; cell material: Jurkat cells): 6.67
- pIC50 ([6]; cell material: Jurkat lysate): 5.72
- pIC50 ([6]; cell material: Lysate mix): 6.22
- pIC50 ([7]; cell material: Jurkat cells): 5.42
- pIC50 ([7]; cell material: Jurkat lysate): < 4.52
- pIC50 ([7]; cell material: Lysate mix): < 4.52
- pIC50 ([8]; cell material: Jurkat cells): 5.78
- pIC50 ([8]; cell material: Lysate mix): 4.8
- pIC50 ([9]; cell material: Jurkat lysate): < 4.52
- pIC50 ([9]; cell material: Lysate mix): < 4.52
- pIC50 [10]: < 4.52
- pIC50 ([11]; cell material: Jurkat cells): 5.24
- pIC50 ([11]; cell material: Jurkat lysate): < 4.52
- pIC50 ([11]; cell material: Lysate mix): < 4.52
- pIC50 ([12]; cell material: Jurkat cells): < 4.52
- pIC50 ([12]; cell material: Jurkat lysate): < 4.52
- pIC50 ([13]; cell material: Jurkat cells): 5.48
- pIC50 ([13]; cell material: Jurkat lysate): < 4.52
- pIC50 ([13]; cell material: Lysate mix): < 4.52
- pIC50 ([14]; cell material: Jurkat cells): < 4.52
- pIC50 ([14]; cell material: Jurkat lysate): < 4.52
- pIC50 ([14]; cell material: Lysate mix): < 4.52
- pIC50 ([15]; cell material: Jurkat cells): 6.24
- pIC50 ([15]; cell material: Jurkat lysate): 5.81
- pIC50 ([15]; cell material: Lysate mix): 6.16
- pIC50 ([16]; cell material: Jurkat cells): 6.11
- pIC50 ([16]; cell material: Jurkat lysate): 5.38
- pIC50 ([16]; cell material: Lysate mix): 5.66

Reference: the supplement of paper PMC12076712
